This note sets out measurements from paper PMC6467995, “Phosphoregulation of the oncogenic protein regulator of cytokinesis 1 (PRC1) by the atypical CDK16/CCNY complex” (Experimental & Molecular Medicine, 2019).

Common to all, as to type: biochemical
Assay [1] has as its target T1, CDK16 (WT-GST-CDK16) (Homo sapiens, UniProt Q00536).
T1 construct: N-terminal GST fusion, full-length, purified from E. coli; with CCNY
The assay can be described thus: in vitro kinase assay with [γ-32P]-ATP, dose response.

The target of assay [2] is T2, CDK16 (analog-sensitive, AS-GST-CDK16) (Homo sapiens, UniProt Q00536, F240G).
T2 construct: N-terminal GST fusion, full-length, purified from E. coli; with CCNY
T2 sequence (Q00536 whole entry F240G, the tested form may be a part): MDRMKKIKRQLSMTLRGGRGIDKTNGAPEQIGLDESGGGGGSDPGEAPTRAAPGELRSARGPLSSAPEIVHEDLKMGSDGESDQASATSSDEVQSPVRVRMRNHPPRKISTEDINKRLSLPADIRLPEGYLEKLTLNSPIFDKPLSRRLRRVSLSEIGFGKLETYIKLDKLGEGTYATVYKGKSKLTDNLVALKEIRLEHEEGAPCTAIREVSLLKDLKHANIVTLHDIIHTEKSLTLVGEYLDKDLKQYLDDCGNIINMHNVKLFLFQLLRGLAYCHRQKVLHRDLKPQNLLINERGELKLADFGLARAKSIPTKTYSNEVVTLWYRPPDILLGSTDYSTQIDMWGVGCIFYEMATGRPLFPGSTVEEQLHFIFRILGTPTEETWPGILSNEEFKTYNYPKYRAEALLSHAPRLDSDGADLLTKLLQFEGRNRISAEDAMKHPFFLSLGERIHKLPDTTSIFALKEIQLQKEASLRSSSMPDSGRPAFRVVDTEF
T2 sequence (Q8ND76 2-341 partner): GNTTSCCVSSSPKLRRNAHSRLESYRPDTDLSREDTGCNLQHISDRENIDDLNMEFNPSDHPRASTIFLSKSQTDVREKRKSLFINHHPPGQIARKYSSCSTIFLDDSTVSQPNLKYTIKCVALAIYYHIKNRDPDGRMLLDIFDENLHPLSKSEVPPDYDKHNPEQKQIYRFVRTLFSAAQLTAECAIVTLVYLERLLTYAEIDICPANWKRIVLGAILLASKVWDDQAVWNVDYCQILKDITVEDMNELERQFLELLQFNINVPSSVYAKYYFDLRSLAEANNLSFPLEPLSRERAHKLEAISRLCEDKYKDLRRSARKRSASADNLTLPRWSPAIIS
The assay is described as above.

In assay [3] the target is T1, CDK16 (WT-GST-CDK16). Kind of assay: in vitro kinase assay, thiophosphate transfer to CCNY.

T1 sequence (Q00536 whole entry, the tested form may be a part): as the sequence (Q00536 whole entry F240G, the tested form may be a part) above, with G240F counted along it
T1 sequence (Q8ND76 2-341 partner): as the sequence (Q8ND76 2-341 partner) above

As to `Cc1cccc(Cc2nn(C(C)(C)C)c3ncnc(N)c23)c1` [3MBPP1, 1-(tert-butyl)-3-(3-methylbenzyl)-1H-pyrazolo[3,4-d]pyrimidin-4-amine], the results for the IC50 in assay [1] and in assay [2] were 4400 nM and 1230 nM, respectively. Take `Nc1ncnc2c1ncn2[C@@H]1O[C@H](CO[P@](=O)(O)O[P@](=O)(O)O[P@@](=O)(O)S)[C@@H](O)[C@H]1O` [ATPγS]: in assay [3], the “in vitro kinase assay, thiophosphate transfer to CCNY” value is reported as “WT-CDK16 used ATPγS to phosphorylate GST-CCNY, it could not use the N^6-modified bulky forms”.

As a reminder, the IC50 is the concentration at which inhibition is half-maximal. Low readings indicate inhibition by little substance, high ones a need for much substance.
